In patent US4935431A, “Substituted 7-amino-thienopyridine derivatives as gastric acid secretion inhibitors” (SmithKline Beckman Intercredit B.V., priority 1988, dated 1990):
pIC50: −log10 of the molar value. Structures can show the parent of a compound that is named as a salt.

What was measured:
[1] = test system: pentagastrin stimulated gastric acid secretion; test: Rat Lumen Perfused Stomach (Pentagastrin Stimulated Gastric Acid Secretion); type: in vivo; conditions: for RAT GS % inhibition @ 10 μmol/kg: i.v.; for ED50: iv, read-out: RAT GS ED50
Excerpt: B. Rat Lumen Perfused Stomach (Pentagastrin Stimulated Gastric Acid Secretion)
Using a modification of the procedure described by Ghosh & Schild (Br. J. Pharmacology, 13, 54, 1958), the compounds of the following examples were found on i.v. administration to cause an inhibition of pentagastrin stimulated gastric acid secretion as indicated in the following table. Results are given as % inhibition at 10 μmole/kg or ED50 (μM/kg): […]

H^+ K^+ ATPase = molecular target: T1, H^+ K^+ ATPase (Sus scrofa, UniProt P19156); test: K^+ -stimulated ATPase activity in lyophilised gastric vesicles (H/K-ATPase); type: biochemical; conditions: lyophilised gastric vesicles from pig fundic mucosa, 37° C., pH 7.0, 30 minutes
T1 construct: Lyophilised gastric vesicles were prepared from pig fundic mucosa; from tissue; host or cells: pig fundic mucosa (lyophilised gastric vesicles)
T1 sequence (P19156 2-1034 limits assumed): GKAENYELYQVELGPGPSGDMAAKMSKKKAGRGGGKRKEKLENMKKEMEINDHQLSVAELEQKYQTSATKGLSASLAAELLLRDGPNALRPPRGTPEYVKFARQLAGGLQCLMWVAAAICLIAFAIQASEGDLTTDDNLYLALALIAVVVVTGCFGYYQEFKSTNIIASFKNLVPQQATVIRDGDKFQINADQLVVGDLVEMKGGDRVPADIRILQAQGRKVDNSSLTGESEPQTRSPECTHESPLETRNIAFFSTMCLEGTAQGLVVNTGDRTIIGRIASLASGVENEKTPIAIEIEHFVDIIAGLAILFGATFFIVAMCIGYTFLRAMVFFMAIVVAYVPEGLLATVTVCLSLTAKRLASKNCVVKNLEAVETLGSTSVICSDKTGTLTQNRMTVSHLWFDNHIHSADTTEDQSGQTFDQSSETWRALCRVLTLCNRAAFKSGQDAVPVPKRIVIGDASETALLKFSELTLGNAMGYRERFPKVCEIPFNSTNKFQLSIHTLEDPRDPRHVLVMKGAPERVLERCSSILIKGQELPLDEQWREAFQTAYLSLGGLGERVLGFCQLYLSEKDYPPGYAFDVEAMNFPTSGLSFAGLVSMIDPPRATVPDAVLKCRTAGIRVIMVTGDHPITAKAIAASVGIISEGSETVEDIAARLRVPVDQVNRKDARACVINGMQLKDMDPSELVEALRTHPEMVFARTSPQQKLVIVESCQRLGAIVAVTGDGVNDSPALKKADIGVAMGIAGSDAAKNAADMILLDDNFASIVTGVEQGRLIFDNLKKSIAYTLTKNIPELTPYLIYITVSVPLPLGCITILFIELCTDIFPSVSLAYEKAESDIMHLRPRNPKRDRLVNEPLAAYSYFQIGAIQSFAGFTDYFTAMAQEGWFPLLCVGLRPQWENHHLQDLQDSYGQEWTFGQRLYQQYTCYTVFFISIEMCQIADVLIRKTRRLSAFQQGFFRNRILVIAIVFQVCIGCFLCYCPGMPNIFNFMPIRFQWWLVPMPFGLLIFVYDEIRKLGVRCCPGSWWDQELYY
T1 sequence (P18434 whole entry partner): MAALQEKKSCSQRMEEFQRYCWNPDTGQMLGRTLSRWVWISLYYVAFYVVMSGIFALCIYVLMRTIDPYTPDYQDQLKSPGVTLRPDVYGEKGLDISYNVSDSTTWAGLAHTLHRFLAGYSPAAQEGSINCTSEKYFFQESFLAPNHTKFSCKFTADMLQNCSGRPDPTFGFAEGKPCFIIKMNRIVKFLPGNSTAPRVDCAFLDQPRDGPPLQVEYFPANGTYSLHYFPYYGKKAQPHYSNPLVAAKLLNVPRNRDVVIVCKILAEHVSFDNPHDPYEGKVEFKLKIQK
Procedure: A. H^+ K^+ ATPase Activity The effects of a single high concentration (100 μM) of a compound of structure (I) on K^+ -stimulated ATPase activity in lyophilised gastric vesicles was determined. Preferred compounds of structure (I) were also tested over a range of concentrations to determine IC50 values. (i) Preparation of Lyonhilised Gastric Vesicles (H/K-ATPase) Lyophilised gastric vesicles were prepared from pig fundic mucosa after the method of Keeling et. al. (Biochem. Pharmacol., 34, 2967, 1985). (ii) K^+ -Stimulated ATPase Activity K^+ -stimulated ATPase activity was determined at 37° C. in the presence of the following: 10 mM Pipes/Tris buffer pH 7.0, 2 mM MgSO4, 1 mM KCl, 2 mM Na2 ATP and 3 μg protein/ml lyophilised gastric vesicles. After incubation for 30 minutes, the inorganic phosphate hydrolysed from ATP was determined by the method of Yoda and Hokin (Biochem. Biophys. Res. Commun. 40, 880, 1970). Compounds of structure (I) were dissolved in dimethylsulphoxide which up to the highest concentration used had no effect on K^+ -stimulated ATPase activity. The effect of the highest concentration of each compound of structure (I) on the recovery of a standard amount of inorganic phosphate was also determined.

| Compound | RAT GS % inhibition @ 10 μmol/kg [1] | pIC50 (H^+ K^+ ATPase) | ED50 [1] |
| --- | --- | --- | --- |
| CCOC(=O)c1cnc2sccc2c1Nc1ccccc1C [Example 1, Ethyl 4-(2-methylohenylamino)thieno[2,3-b]pyridine-5-carboxylate] | 32% | 5.52 | – |
| CCOC(=O)c1cnc2sccc2c1NCc1ccccc1 [Example 2, Ethyl 4-benzylaminothieno[2,3-b]pyridine-5-carboxylate] | 13% | 5.01 | – |
| CCOC(=O)c1cnc2ccsc2c1Nc1ccccc1C [Example 3, Ethyl 7-(2-methylphenylamino)thieno[3,2-b]pyridine-6-carboxylate] | – | 6.21 | 9.7 µmol/kg |
| CCOC(=O)c1cnc2ccsc2c1NCc1ccccc1 [Example 4, Ethyl 7-benzylaminothieno[3,2-b]pyridine-6-carboxylate] | 19% | 5.37 | – |
| CCOC(=O)c1cnc2c(C)csc2c1Nc1ccccc1C [Example 5, Ethyl 3-methyl-7-(2-methylphenylamino)thieno[3,2-b]-pyridine-6-carboxylate] | – | – | 11.2 µmol/kg |
| CCOC(=O)c1cnc2c(C)csc2c1NCc1ccccc1 [Example 6, Ethyl 3-methyl-7-benzylaminothieno[3,2-b]pyridine-6-carboxylate] | 31% | – | – |
| CCOC(=O)c1cnc2c(OC)csc2c1Nc1ccccc1C [Example 7, Ethyl 3-methoxy-7-(2-methylohenylamino)thieno[3,2-b] pyridine-6-carboxylate] | – | 4.68 | – |
| CCCC(=O)c1cnc2c(OC)csc2c1Nc1ccccc1C [Example 9, 6-Butyryl-7-(2-methylphenylamino)-3-methoxythieno[3,2-b]pyridine] | – | 4.89 | – |
| CCCC(=O)c1cnc2ccsc2c1Nc1ccccc1C [Example 11, 6-Butyryl-7-(2-methylphenylamino)thieno[3,2-b]pyridine] | 55% | 6.06 | – |
| CCCC(=O)c1cnc2ccsc2c1Nc1ccc(F)cc1C [Example 12, 6-Butyryl-7-(4-fluoro-2-methylphenylamino)thieno[3,2-b]-pyridine] | 38% | 5.37 | – |
| CCCC(=O)c1cnc2ccsc2c1Nc1ccccc1CC [Example 13, 6-Butyryl-7-(2-ethylphenylamino)thieno[3,2-b]pyridine] | – | 5.96 | 3.32 µmol/kg |
| CCCC(=O)c1cnc2ccsc2c1Nc1ccccc1CCC [Example 14, 6-Butyryl-7-(2-propylphenylamino)thieno[3,2-b]pyridine hydrochloride] | – | 5.92 | – |
| CCCC(=O)c1cnc2ccsc2c1Nc1ccccc1C(C)C [Example 15, 6-Butyryl-7-(2-isopropylphenylamino)thieno[3,2-b]pyridine] | 62% | 6.07 | – |
| CCCC(=O)c1cnc2ccsc2c1Nc1ccc(O)cc1C [Example 16, 6-Butyryl-(4-hydroxy-2-methylphenylamino)thieno[3,2-b]-pyridine] | – | 6.48 | 4.03 µmol/kg |
